Experimental data from patent US20060030623A1, “Agent for the treatment or prevention of diabetes, obesity or arteriosclerosis” (priority 2004, published 2006).

Legend:
[1] = Antidiabetic effect: plasma parameters in KKAy mice after 14 days of Compound (1) in diet; assay type: in vivo, mouse (male KKAy, genetically diabetic, insulin-resistant); settings: blood on day 15; for Free fatty acid / Insulin / Neutral fat: plasma
Source text: Male KKAy mice (Clea Japan, Inc.) aged 7 weeks which are genetically diabetic (insulin-resistant) were used in the test. Blood was previously collected from the orbital venous plexus of animals acclimated to feeding with normal powdered diet (CRF-1, Oriental Yeast, Co., Ltd.), and then the animals were grouped into 5 groups containing 6 animals each so that there might be no intergroup difference with respect to plasma parameters (neutral fat value, free fatty acid value, insulin value, blood sugar level). Compound (1) was added to the powdered diet so that the concentration in the diet might be 1, 3, 10, and 30 mg/kg/day. The animals were allowed to take the diet ad libitum for 14 days, and blood was collected again from the orbital venous plexus in the morning on day 15 for the measurement of the above-mentioned plasma parameters.

[2] = Anti-obesity effect: body weight and gain in rabbits on high fat diet; assay type: in vivo, Japanese white rabbits; settings: high fat diet restricted to 100 g/day, after 12 weeks
Source text: Japanese white rabbits (Kitayama Labes., Co Ltd.) aged 9 weeks were used in the test. Blood was collected from the auricular artery of animals acclimated to feeding with high fat diet (RC-4 containing 0.3% cholesterol and 3% peanut oil, supplied by Oriental Yeast, Co., Ltd.), and then the animals were grouped into 4 groups containing 12 animals each so that there might be no intergroup difference with respect to body weight and plasma parameters (neutral fat value, total cholesterol value, HDL cholesterol value). Compound (1) was added to the high fat diet so that the intake of Compound (1) might be 3, 10, and 30 mg/kg/100 g diet/day. The animals were given the diet restricted to 100 g diet/day for 12 weeks, and body weight and its gain were determined after the 12 weeks.

[3] = Anti-arteriosclerosis effect: lipid-stained area of aorta in rabbits on high fat diet; assay type: in vivo, Japanese white rabbits; settings: rabbit aorta, lipid stain, high fat diet 100 g/day, 12 weeks
Source text: Japanese white rabbits (Kitayama Labes., Co Ltd.) aged 9 weeks were used in the test. Blood was collected from the auricular artery of animals acclimated to feeding with high fat diet (RC-4 containing 0.3% cholesterol and 3% peanut oil, Oriental Yeast, Co., Ltd.), and then the animals were grouped into 4 groups containing 12 animals each so that there might be no intergroup difference with respect to body weight and parameters in plasma (neutral fat value, total cholesterol value, HDL cholesterol value). Compound (1) was added to the high fat diet so that the intake of Compound (1) might be 3, 10, and 30 mg/kg/100 g diet/day. The animals were allowed to take the diet restricted to 100 g diet/day for 12 weeks, lipid of the aorta was stained, and the stained region was defined as the arteriosclerotic region. The percentage of area of the arteriosclerotic region was calculated according to the equation below.

[4] = Visceral fat-decreasing effect: fat weight by X ray CT in rats on high fat diet; assay type: in vivo; settings: SD rats, 35% (w/w) high fat diet with 0.029% (w/w) Compound (1), 3 months
Source text: SD rats (Charles River Japan, Inc.) aged 8 weeks were used in the test. Animals acclimated to feeding with 35% (w/w) high fat diet for 1 week were grouped into 2 groups, i.e. a control group and a group treated with Compound (1), for the test. Animals in the control group received the 35% (w/w) high fat diet, and those in the Compound (1) group received the diet prepared by adding Compound (1) to 0.029% (w/w) of the 35% (w/w) high fat diet, for 3 months. Tap water was available ad libitum to the animals in the test.
Fat weight was determined 3 months later with an X ray CT scanner for laboratory animals (Aloka).

[5] = Solubility in water; assay type: physicochemical; settings: general statement, no test described

**Q.** Which results are given for CCOC(=O)C(COC(=O)Cc1ccc(NC(=O)c2ccccc2-c2ccc(C(F)(F)F)cc2)c(C(=O)N(C)C)c1)(C(=O)OCC)c1ccccc1 [Compound (1), 2-(2-{3-dimethylcarbamoyl-4-[(4′-trifluoromethyl-biphenyl-2-carbonyl)amino]phenyl}acetoxymethyl)-2-phenylmalonic acid diethyl ester]?
**A.** Blood sugar ([1]; 1 mg/kg/day in diet): 413 ± 34.9 mg/dL; Blood sugar ([1]; 3 mg/kg/day in diet): 516 ± 14.9 mg/dL; Blood sugar ([1]; 10 mg/kg/day in diet): 405 ± 36.8 mg/dL; Blood sugar ([1]; 30 mg/kg/day in diet): 331 ± 39.6 mg/dL; Free fatty acid ([1]; 1 mg/kg/day in diet): 353 ± 15.9 µEq/l; Insulin ([1]; 1 mg/kg/day in diet): 117 ± 14.0 ng/mL; Neutral fat ([1]; 1 mg/kg/day in diet): 676 ± 57.2 mg/dL; Free fatty acid ([1]; 3 mg/kg/day in diet): 293 ± 11.7 µEq/l; Insulin ([1]; 3 mg/kg/day in diet): 103 ± 10.5 ng/mL; Neutral fat ([1]; 3 mg/kg/day in diet): 716 ± 79.9 mg/dL; Free fatty acid ([1]; 10 mg/kg/day in diet): 235 ± 24.9 µEq/l; Insulin ([1]; 10 mg/kg/day in diet): 102 ± 11.3 ng/mL; Neutral fat ([1]; 10 mg/kg/day in diet): 545 ± 53.1 mg/dL; Free fatty acid ([1]; 30 mg/kg/day in diet): 171 ± 17.4 µEq/l; Insulin ([1]; 30 mg/kg/day in diet): 67 ± 10.4 ng/mL; Neutral fat ([1]; 30 mg/kg/day in diet): 298 ± 21.0 mg/dL; Body weight ([2]; 3 mg/kg/day): 3122.1 g; Body weight gain ([2]; 3 mg/kg/day): 1176.0 g; Body weight ([2]; 10 mg/kg/day): 2997.1 g; Body weight gain ([2]; 10 mg/kg/day): 1065.9 g; Body weight ([2]; 30 mg/kg/day): 2969.0 g; Body weight gain ([2]; 30 mg/kg/day): 1025.4 g; Percentage of area of arteriosclerotic region ([3]; 3 mg/kg/day): 28.4%; Percentage of area of arteriosclerotic region ([3]; 10 mg/kg/day): 7.7%; Percentage of area of arteriosclerotic region ([3]; 30 mg/kg/day): 0.15%; Muscle weight [4]: 204.4 g; Subcutaneous fat weight [4]: 14.9 g; Visceral fat weight [4]: 28.8 g; Solubility in water [5]: slightly soluble or insoluble in water
